According to PMC8407143 (Bioorganic & medicinal chemistry letters, 2021):
Entries after “also recorded” stand apart in the source; their conditions may differ.

Legend:
[1] = target: B. pseudomallei IspF (BpIspF) (Burkholderia pseudomallei, UniProt Q3JRA0); assay: biochemical; assay type: binding; conditions: for Kd: KD,app
BpIspF = BpIspF (Burkholderia pseudomallei, UniProt Q3JRA0); assay type: binding
E. coli IspF [2] = target: T1, E. coli IspF (Escherichia coli, UniProt P62617); assay type: binding; conditions: pH 7.4
T1 sequence (P62617 1-159): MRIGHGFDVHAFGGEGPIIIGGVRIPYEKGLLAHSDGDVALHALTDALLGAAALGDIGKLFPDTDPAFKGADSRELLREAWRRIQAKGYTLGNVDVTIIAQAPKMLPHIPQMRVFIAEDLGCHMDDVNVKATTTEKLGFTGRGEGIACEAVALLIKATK

E. coli IspF [3] = target: T1, E. coli IspF; conditions: cited from earlier work
E. coli IspF [4] = target: T1, E. coli IspF; conditions: cited from earlier work; remark: listed apart in the source

Sequence of BpIspF (Q3JRA0 whole entry, looked up): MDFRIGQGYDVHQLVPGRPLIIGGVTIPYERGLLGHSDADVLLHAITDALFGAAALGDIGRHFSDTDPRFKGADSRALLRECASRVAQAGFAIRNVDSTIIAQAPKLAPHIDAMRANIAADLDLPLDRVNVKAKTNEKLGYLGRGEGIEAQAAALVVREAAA
Sequence of B. pseudomallei IspF (BpIspF) (Q3JRA0 whole entry, looked up): as above

SMILES: N[C@H](Cc1c[nH]c2ccccc12)C(=O)O [D-tryptophan, reference compound]
- Kd [1]: > 1000 µM
- binding (in words) ([1]; pH 7.4): undetectable binding; also recorded: did not show appreciable binding

SMILES: CC(C)=CCC/C(C)=C/COP(=O)(O)OP(=O)(O)O [geranyl diphosphate (GPP), geranyl diphosphate, reference compound]
- interaction with BpIspF by STD NMR (in words) (BpIspF): did not show significant interaction

SMILES: N[C@@H](Cc1c[nH]c2ccccc12)C(=O)O [L-tryptophan, reference compound]
- Kd [1]: > 1000 µM
- binding (in words) ([1]; pH 7.4): did not show appreciable binding

SMILES: N[C@@H](Cc1c[nH]c2ccccc12)C(=O)NO [L-tryptophan hydroxamate (3), L-tryptophan hydroxamate]
- N (stoichiometry) (E. coli IspF [2]): 1.2 ± 0.3
- binding at pH 6.0 compared to pH 7.4 (fold weaker) [1]: approximately 25 fold
- N (stoichiometry) ([1]; pH 7.4): 1.5 ± 0.2
- N (stoichiometry) ([1]; pH 8): 1.4 ± 0.4
- Relative Percent Saturation Transfer, proton A (BpIspF): 100%
- Relative Percent Saturation Transfer, proton B (BpIspF): 60–65%
- Relative Percent Saturation Transfer, proton C (BpIspF): 80–85%
- Relative Percent Saturation Transfer, proton D (BpIspF): 75–80%
- Relative Percent Saturation Transfer, proton E (BpIspF): 80–85%
- Relative Percent Saturation Transfer, proton F (BpIspF): 25–30%
- Relative Percent Saturation Transfer, proton G (BpIspF): 50–55%
- Kd (E. coli IspF [3]): ~2 µM

SMILES: N[C@H](Cc1c[nH]c2ccccc12)C(=O)NO [D-tryptophan hydroxamate]
- change in affinity relative to L-tryptophan hydroxamate (3) [1]: less than a twofold drop in affinity; also recorded: less than two-fold weaker
- N (stoichiometry) ([1]; pH 7.4): 0.7

SMILES: CC(C)=CCC/C(C)=C/CC/C(C)=C/CO[P@@](=O)(O)OP(=O)(O)O (stereo in doubt) [farnesyl diphosphate (FPP), farnesyl diphosphate]
- direct feedback inhibition of E. coli IspF (in words) (E. coli IspF [4]): did not observe direct feedback inhibition
